Test [1] addresses T1, PRS (prolyl-tRNA synthetase) (Homo sapiens, UniProt P07814).
T1 construct: the portion corresponding to PRS in cDNA of EPRS was subcloned; made in house
T1 sequence (P07814 1007-1512 limits assumed): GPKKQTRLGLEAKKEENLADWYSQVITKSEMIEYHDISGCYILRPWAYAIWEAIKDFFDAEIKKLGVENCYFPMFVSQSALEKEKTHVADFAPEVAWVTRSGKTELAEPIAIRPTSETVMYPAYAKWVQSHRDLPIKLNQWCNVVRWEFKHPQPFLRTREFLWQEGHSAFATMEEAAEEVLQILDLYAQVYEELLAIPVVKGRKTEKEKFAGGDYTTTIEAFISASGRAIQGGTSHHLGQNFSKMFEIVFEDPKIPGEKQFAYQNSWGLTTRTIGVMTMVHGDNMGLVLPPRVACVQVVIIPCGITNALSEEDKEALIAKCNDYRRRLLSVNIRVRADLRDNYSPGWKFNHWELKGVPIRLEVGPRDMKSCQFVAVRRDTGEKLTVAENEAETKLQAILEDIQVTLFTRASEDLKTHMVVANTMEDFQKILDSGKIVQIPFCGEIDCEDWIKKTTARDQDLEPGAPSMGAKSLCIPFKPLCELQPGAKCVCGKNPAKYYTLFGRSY
As to the kind of experiment: In vitro PRS enzyme activity inhibition experiment ([3H]proline, liquid scintillation). The format is biochemical. In a few lines: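 Purified human PRS domain subcloned from EPRS cDNA, reacted at 37 °C for 5–10 min in 20 mM KPO4 pH 7.4, 6 mM MgAc, 5 mM ATP, tRNA, 0.5 mM DTT and [3H]proline. Compounds tested at 1 μM. Aminoacylation read on TCA-treated filter paper by liquid scintillation, giving % inhibition or IC50.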

Another test has as its system NCI-H460 cells. The experiment in a line: Cancer cell growth inhibition experiment (MTT assay). The format is cell-based. As to conditions: Homo sapiens; NCI-H460 lung cancer cell line; 48 hours treatment; MTT cell viability. How it is done:
NCI-H460 cells, lung cancer cell lines, were cultured in 5% CO2, 37° C. incubator using a flask for 75 cm^2 tissue culture. 96-well plates were used for the evaluation. These were prepared by differently applying at concentrations in the range of 6,000 to 12,000 cells/well according to the growth rate of the cell lines. The medium containing 5% FBS were dispensed in 200 μL/well and used. The medium were cultured for 24 hours. After confirming the cell status and dispensing form of a 96-well plate under a microscope, they were used for subsequent experiments. The compounds were evaluated at concentrations of 100, 30, 10, 3, 1, 0.3, 0.03, 0.01 μM. After removing the existing medium, the compounds with various concentrations were treated in an amount of 200 μL/well. The compounds-treated plates were further cultured for 48 hours, and the cell viabilities were measured by MTT assay to calculate IC50 values.
% Inhibition and IC50 values of the respective compounds were calculated and analyzed using Sigma Plot 8.0. The case where the derived IC50 is 5 μM or less is represented by “A”, the case where the IC50 is 5 to 30 μM is represented by “B”, and the case where the IC50 is 30 μM or higher is represented by “C”.
For orientation: Formazan colour is commonly taken as a measure of viable cells.

Setting [2] is: purified PRS protein subcloned from EPRS cDNA, 37° C., 5 to 10 minutes, read-out: PRS IC50.

Read-outs that look alike come from different tables or passages of the source.

By IC50 is commonly meant the concentration that inhibits the measured activity by half. `NCc1nc2cc(Cl)c(Cl)cc2n1CC(=O)C[C@H]1NCCC[C@@H]1O` [Example 52, 1-(2-(aminomethyl)-5,6-dichloro-1H-benzo[d]imidazol-1-yl)-3-((2R,3S)-3-hydroxypiperidin-2-yl)propan-2-one]: the values for the 50% inhibitory concentration (IC50) (in test [1] (setting [2]); with NCI-H460 cells) were greater than 0.5 µM and no less than 30 µM, respectively.
On the same counts, the results for `O=C(C[C@H]1NCCC[C@@H]1O)Cn1nnc2ccc(Cl)cc21` [Example 100, 1-(6-chloro-1H-benzo[d][1,2,3]triazol-1-yl)-3-((2R,3S)-3-hydroxypiperidin-2-yl)propan-2-one] are greater than 0.5 µM and no less than 30 µM.
For the compound `O=C(C[C@H]1NCCC[C@@H]1O)Cn1cnc2cc(F)c(Br)cc21` [Example 26, 1-(6-bromo-5-fluoro-1H-benzo[d]imidazol-1-yl)-3-((2R,3S)-3-hydroxypiperidin-2-yl)propan-2-one], the 50% inhibitory concentration (IC50) in test [1] (setting [2]) was less than 0.1 µM; in the test with NCI-H460 cells, no more than 5 µM.
The like results for `O=C(C[C@H]1NCCC[C@@H]1O)Cn1ccc2ccc(Br)nc21` [Example 92, 1-(6-bromo-1H-pyrrolo[2,3-b]pyridin-1-yl)-3-((2R,3S)-3-hydroxypiperidin-2-yl)propan-2-one] were, in that order, greater than 0.5 µM and no less than 30 µM.
Take `Cc1nc2cc(Cl)c(Cl)cc2n1CC(=O)C[C@H]1NCCC[C@@H]1O` [Example 46, 1-(5,6-dichloro-2-methyl-1H-benzo[d]imidazol-1-yl)-3-((2R,3S)-3-hydroxypiperidin-2-yl)propan-2-one]: the results for the IC50 (in test [1] (setting [2]); in the test on NCI-H460 cells) were less than 0.1 µM and no less than 30 µM, respectively.
Take `O=C(C[C@H]1NCCC[C@@H]1O)Cn1cnc2ccc(Br)nc21` [Example 35, 1-(5-bromo-3H-imidazo[4,5-b]pyridin-3-yl)-3-((2R,3S)-3-hydroxypiperidin-2-yl)propan-2-one]: the IC50 is less than 0.1 µM in test [1] (setting [2]) and 5 to 30 µM in the test with NCI-H460 cells.
For the compound `Cc1cc(Cl)cc2c1ncn2CC(=O)C[C@H]1NCCC[C@@H]1O` [Example 24, 1-(6-chloro-4-methyl-1H-benzo[d]imidazol-1-yl)-3-((2R,3S)-3-hydroxypiperidin-2-yl)propan-2-one], the IC50 is less than 0.1 µM in test [1] (setting [2]) and 5 to 30 µM with NCI-H460 cells.
Take `Cc1cc(Br)cc2c1ncn2CC(=O)C[C@H]1NCCC[C@@H]1O` [Example 23, 1-(6-bromo-4-methyl-1H-benzo[d]imidazol-1-yl)-3-((2R,3S)-3-hydroxypiperidin-2-yl)propan-2-one]: the IC50 in test [1] (setting [2]) is less than 0.1 µM; in the test on NCI-H460 cells, 5 to 30 µM.
Turning to `O=C(C[C@H]1NCCC[C@@H]1O)Cn1ccc2ccnc(Cl)c21` [Example 93, 1-(7-chloro-1H-pyrrolo[2,3-c]pyridin-1-yl)-3-((2R,3S)-3-hydroxypiperidin-2-yl)propan-2-one], the IC50 was 0.1 to 0.5 µM in test [1] (setting [2]) and no less than 30 µM with NCI-H460 cells.
The like results for `O=C(C[C@H]1NCCC[C@@H]1O)Cn1cnc2cc(Br)cnc21` [Example 37, 1-(6-bromo-3H-imidazo[4,5-b]pyridin-3-yl)-3-((2R,3S)-3-hydroxypiperidin-2-yl)propan-2-one] were, in that order, less than 0.1 µM and no more than 5 µM.
In the case of `O=C(C[C@H]1NCCC[C@@H]1O)Cn1cnc2c(Cl)c(Br)cnc21` [Example 42, 1-(6-bromo-7-chloro-3H-imidazo[4,5-b]pyridin-3-yl)-3-((2R,3S)-3-hydroxypiperidin-2-yl)propan-2-one], the IC50 was less than 0.1 µM in test [1] and no more than 5 µM with NCI-H460 cells.
Consider `CCc1nc2cc(Cl)c(Cl)cc2n1CC(=O)C[C@H]1NCCC[C@@H]1O` [Example 48, 1-(5,6-dichloro-2-ethyl-1H-benzo[d]imidazol-1-yl)-3-((2R,3S)-3-hydroxypiperidin-2-yl)propan-2-one], for which the IC50 in test [1] (setting [2]) was greater than 0.5 µM; in the test on NCI-H460 cells it was no less than 30 µM.
Turning to `Cc1c(C#N)cnc2c1ccn2CC(=O)C[C@H]1NCCC[C@@H]1O` [Example 95, 1-(3-((2R,3S)-3-hydroxypiperidin-2-yl)-2-oxopropyl)-4-methyl-1H-pyrrolo[2,3-b]pyridin-5-carbonitrile], the IC50 in test [1] was greater than 0.5 µM; in the test on NCI-H460 cells it was no less than 30 µM.

Source of the values: patent US10081634B2, “Heterocyclic compound” (Daewoong Pharmaceutical Co., Ltd., priority 2014, dated 2018).
